≈ marks a conversion by molar mass, not a printed value.
Legend:
[1] = target: T1, Muscarinic acetylcholine receptor M2 (Homo sapiens, UniProt P08172); experiment: Displacement of [3H]7-[(3R,4R)-3,4-Dihydroxypyrrolidin-1-yl]-6-fluoro-4-oxo-N-[3,3,4,4,4-pentafluorobutan-2-yl]-1-(2,4,6-trifluorophenyl)-1,4-dihydro-1,8-naphthyridine-3-carboxamide from human M2 muscarinic acetylcholine receptor expressed in CHO-S cells in presence of acetylcholine by competitive radioligand binding assay; format: cell-based
T1 sequence (P08172 whole entry): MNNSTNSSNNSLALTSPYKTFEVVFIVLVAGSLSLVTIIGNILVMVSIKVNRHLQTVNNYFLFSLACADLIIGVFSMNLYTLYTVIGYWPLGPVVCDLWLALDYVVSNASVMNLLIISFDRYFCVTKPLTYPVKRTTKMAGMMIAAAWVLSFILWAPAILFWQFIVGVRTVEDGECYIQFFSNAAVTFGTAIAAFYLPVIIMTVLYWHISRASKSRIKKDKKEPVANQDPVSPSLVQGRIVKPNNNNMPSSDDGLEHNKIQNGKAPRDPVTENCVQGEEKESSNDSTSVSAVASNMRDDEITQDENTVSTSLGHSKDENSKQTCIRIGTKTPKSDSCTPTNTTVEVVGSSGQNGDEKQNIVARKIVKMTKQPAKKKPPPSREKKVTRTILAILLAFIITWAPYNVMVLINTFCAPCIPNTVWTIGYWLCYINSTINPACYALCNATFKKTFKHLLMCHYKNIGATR

[2] = target: T1, Muscarinic acetylcholine receptor M2
[3] = Intrinsic clearance in rat hepatocytes measured for 90 mins by LC-MS/MS analysis; format: ADME, cell-based, Hepatocyte; conditions: read-out: CLH (converted)
[4] = Apparent permeability of the compound across apical to basolateral sides in human Caco-2 cells at 2 uM measured after 2 hrs by LC-MS/MS analysis; format: ADME, cell-based
[5] = Volume of distribution at steady state in Wistar rat at 0.3 mg/kg, iv administered as bolus dose by LC-MS analysis; format: ADME, organism-based; conditions: in vivo, read-out: Vdss
[6] = Solubility of the compound in PBS buffer at pH 6.5 measured after 24 hrs by LC-MS/MS analysis; format: physicochemical
[7] = Blood clearance in Wistar rat at 0.3 mg/kg, iv administered as bolus dose by LC-MS analysis; format: ADME, organism-based
[8] = Half-life in Wistar rat at 0.3 mg/kg, iv administered as bolus dose by LC-MS analysis; format: ADME, organism-based; conditions: in vivo
[9] = Fraction unbound in rat plasma; format: ADME, cell-free
[10] = Oral bioavailability in Wistar rat at 1 mg/kg by LC-MS analysis; format: ADME, organism-based; conditions: in vivo
[11] = Fraction unbound in human plasma; format: ADME, cell-free
[12] = Efflux ratio of apparent permeability across basal to apical membrane over apical to basal membrane in human Caco-2 cells at 2 uM measured after 2 hrs by LC-MS/MS analysis
[13] = Tmax in Wistar rat at 1 mg/kg, po by LC-MS/MS analysis; format: ADME, organism-based; conditions: in vivo
[14] = Half life in Wistar rat at 1 mg/kg, po by LC-MS/MS analysis; format: ADME, organism-based; conditions: in vivo

| predicted hepatic blood clearance at […] [3] | Papp A→B at 2 h, 2 µM [4] | Vd [5] | solubility at 24 h [6] | clearance [7] | half-life [8] | SMILES | other results |
| --- | --- | --- | --- | --- | --- | --- | --- |
| – | – | – | – | – | – | COc1nc2sc(C(=O)NC3CC3)c(N)c2c(C)c1Cl | Ki [1]: 3 µM; EC50 [2]: 2.4 µM |
| 21.7 mL/min/kg | 1.2 ×10⁻⁶ cm/s | 3.5 L/kg | 13 µg/mL (≈ 24.5 µM) | 25 mL/min/kg | 1.6 h | CC[C@H](NC(=O)c1cn(-c2c(F)cc(F)cc2F)c2nc(N3C[C@@H](O)[C@H](O)C3)ccc2c1=O)C(F)(F)F | – |
| 43.3 mL/min/kg | – | – | 0.3 µg/mL (≈ 0.59 µM) | – | – | CC[C@@H](NC(=O)c1cn(-c2ccccc2Cl)c2nc(N3C[C@@H](O)CC3=O)ccc2c1=O)C(F)(F)F | – |
| 25 mL/min/kg | – | – | 1.5 µg/mL (≈ 2.94 µM) | – | – | CC[C@H](NC(=O)c1cn(-c2c(F)cccc2F)c2nc(N3C[C@@H](O)CC3=O)ccc2c1=O)C(F)(F)F | – |
| 31.7 mL/min/kg | – | – | 1.1 µg/mL (≈ 2.23 µM) | – | – | CC[C@@H](NC(=O)c1cn(-c2ccccc2F)c2nc(N3C[C@@H](O)CC3=O)ccc2c1=O)C(F)(F)F | – |
| 43.3 mL/min/kg | – | – | – | – | – | CC[C@@H](NC(=O)c1cn(-c2c(Cl)cccc2Cl)c2nc(N3C[C@@H](O)CC3=O)ccc2c1=O)C(F)(F)F | – |
| 18.3 mL/min/kg | 12.9 ×10⁻⁶ cm/s | 3.7 L/kg | 12.5 µg/mL (≈ 23 µM) | 15 mL/min/kg | 4.6 h | O=C(N[C@@H](C1CC1)C(F)(F)F)c1cn(-c2c(F)cc(F)cc2F)c2nc(N3C[C@@H](O)[C@H](O)C3)ccc2c1=O | fraction unbound [9]: 0.025; bioavailability [10]: 19%; fraction unbound [11]: 0.033; efflux ratio at 2 h, 2 µM [12]: 8 |
| 21.7 mL/min/kg | 48.2 ×10⁻⁶ cm/s | 1.7 L/kg | 2.9 µg/mL (≈ 5.68 µM) | 21.7 mL/min/kg | 1.2 h | CC[C@@H](NC(=O)c1cn(-c2c(F)cccc2F)c2nc(N3C[C@@H](O)CC3=O)ccc2c1=O)C(F)(F)F | fraction unbound [9]: 0.009; bioavailability [10]: 29%; fraction unbound [11]: 0.023; efflux ratio at 2 h, 2 µM [12]: 0.8 |
| 16.7 mL/min/kg | 46.2 ×10⁻⁶ cm/s | 3.5 L/kg | 0.4 µg/mL (≈ 0.757 µM) | 20 mL/min/kg | 3.4 h | CC[C@H](NC(=O)c1cn(-c2c(F)cc(F)cc2F)c2nc(N3C[C@@H](O)CC3=O)ccc2c1=O)C(F)(F)F | fraction unbound [9]: 0.02; bioavailability [10]: 91%; fraction unbound [11]: 0.03; efflux ratio at 2 h, 2 µM [12]: 0.6 |
| 22.7 mL/min/kg | 45.6 ×10⁻⁶ cm/s | 0.8 L/kg | 1.9 µg/mL (≈ 3.72 µM) | 26.7 mL/min/kg | 0.8 h | CC[C@@H](NC(=O)c1cn(-c2ccc(F)cc2F)c2nc(N3C[C@@H](O)CC3=O)ccc2c1=O)C(F)(F)F | fraction unbound [9]: 0.008; bioavailability [10]: 29%; efflux ratio at 2 h, 2 µM [12]: 0.9 |
| 31.7 mL/min/kg | 43.4 ×10⁻⁶ cm/s | 2.3 L/kg | 2.2 µg/mL (≈ 4.16 µM) | 56.7 mL/min/kg | 0.9 h | CC[C@@H](NC(=O)c1cn(-c2c(F)cc(F)cc2F)c2nc(N3C[C@@H](O)CC3=O)ccc2c1=O)C(F)(F)F | efflux ratio at 2 h, 2 µM [12]: 0.6 |
| 31.7 mL/min/kg | – | – | < 0.1 µg/mL | – | – | CC[C@@H](NC(=O)c1cn(-c2c(Cl)cc(F)cc2Cl)c2nc(N3C[C@@H](O)CC3=O)ccc2c1=O)C(F)(F)F | – |
| 41.7 mL/min/kg | – | – | 1.4 µg/mL (≈ 2.51 µM) | – | – | CC(C)(C)[C@H](NC(=O)c1cn(-c2c(F)cc(F)cc2F)c2nc(N3C[C@@H](O)[C@H](O)C3)ccc2c1=O)C(F)(F)F | – |
| 60 mL/min/kg | – | – | – | – | – | O=C(NC1(C(F)(F)F)CCCC1)c1cn(-c2c(F)cc(F)cc2F)c2nc(N3C[C@@H](O)[C@H](O)C3)ccc2c1=O | – |
| 58.3 mL/min/kg | – | – | 0.9 µg/mL (≈ 1.66 µM) | – | – | O=C(NC1(C(F)(F)F)CCC1)c1cn(-c2c(F)cc(F)cc2F)c2nc(N3C[C@@H](O)[C@H](O)C3)ccc2c1=O | – |
| 26.7 mL/min/kg | – | – | – | – | – | O=C(Nc1c(Cl)cccc1Cl)c1cn(-c2ccc(F)cc2F)c2nc(N3C[C@@H](O)CC3=O)ccc2c1=O | – |
| 6.67 mL/min/kg | – | – | 1.8 µg/mL (≈ 3.52 µM) | – | – | CC[C@H](NC(=O)c1cn(-c2ncc(F)cc2F)c2nc(N3C[C@@H](O)CC3=O)ccc2c1=O)C(F)(F)F | – |
| 56.7 mL/min/kg | – | – | < 0.1 µg/mL | – | – | CC[C@H](NC(=O)c1cn(-c2c(F)cc(F)cc2F)c2nc(N3CC4CC4(O)C3)ccc2c1=O)C(F)(F)F (mixture of isomers) | – |
| 33.3 mL/min/kg | 8.3 ×10⁻⁶ cm/s | 1.2 L/kg | 62 µg/mL (≈ 107 µM) | 8.33 mL/min/kg | 2.1 h | CCC(NC(=O)c1cn(-c2c(F)cc(F)cc2F)c2nc(N3C[C@@H](O)[C@H](O)C3)ccc2c1=O)C(F)(F)C(F)(F)F (single isomer, unassigned; diastereomer 1) | fraction unbound [9]: 0.013; bioavailability [10]: 22%; fraction unbound [11]: 0.018 |
| 13.3 mL/min/kg | 19.3 ×10⁻⁶ cm/s | 2.5 L/kg | 54.7 µg/mL (≈ 96.6 µM) | 11.7 mL/min/kg | 2.1 h | CC(NC(=O)c1cn(-c2c(F)cc(F)cc2F)c2nc(N3C[C@@H](O)[C@H](O)C3)ccc2c1=O)C(F)(F)C(F)(F)F (single isomer, unassigned; diastereomer 1) | bioavailability [10]: 21% |
| 20 mL/min/kg | 11.3 ×10⁻⁶ cm/s | 3 L/kg | 11.2 µg/mL (≈ 18.7 µM) | 23.3 mL/min/kg | 1.8 h | CCC(NC(=O)c1cn(-c2c(F)cc(F)cc2F)c2nc(N3C[C@@H](O)[C@H](O)C3)c(F)cc2c1=O)C(F)(F)C(F)(F)F (single isomer, unassigned; diastereomer 1) | fraction unbound [9]: 0.006; bioavailability [10]: 48%; Tmax [13]: 6 h; half-life [14]: 4.2 h |
| 51.7 mL/min/kg | 6 ×10⁻⁶ cm/s | – | 0.4 µg/mL (≈ 0.638 µM) | – | – | CC(C)(C)C(NC(=O)c1cn(-c2c(F)cc(F)cc2F)c2nc(N3C[C@@H](O)[C@H](O)C3)c(F)cc2c1=O)C(F)(F)C(F)(F)F (single isomer, unassigned; diastereomer 2) | – |

| SMILES | predicted hepatic blood clearance at […] [3] | Papp A→B at 2 h, 2 µM [4] | Vd [5] | solubility at 24 h [6] | clearance [7] | half-life [8] | other results |
| --- | --- | --- | --- | --- | --- | --- | --- |
| O=C(NC12CC3CC(CC(C3)C1)C2)c1cn(-c2ccc(F)cc2F)c2nc(N3CCCC3=O)ccc2c1=O | 60 mL/min/kg | – | – | – | – | – | – |
| CN(C)c1ccc2c(=O)c(C(=O)NC34CC5CC(CC(C5)C3)C4)cn(-c3ccc(F)cc3F)c2n1 | 41.7 mL/min/kg | – | – | – | – | – | – |
| O=C(NC12CC3CC(CC(C3)C1)C2)c1cn(-c2ccc(F)cc2F)c2nc(N3CCCC3)ccc2c1=O | 50 mL/min/kg | – | – | – | – | – | – |

Source: ChEMBL document CHEMBL6083268, “Discovery of BAY 2413555, First Selective Positive Allosteric Modulator of the M2 Receptor to Restore Cardiac Autonomic Balance” (J Med Chem, 2024)
